Tests used:
Assay type in all cases: cell-based, human
[1] = test system: CAM expression in ES2 cells; assay: Microarray gene expression, Table 4; conditions: for inhibiting ratio to the control, genes related to the adhesion molecule: span over different probes of Table 4
Experimental: (§1) Y/D is the ratio (in folds) of gene expression in cells treated with compound Y as compared with those of the no drug control (D),
(§2) YM/D is the ratio of gene expression in cells treated with compound YM (ACH-Y, Y without sugar moiety) compared with those of the no drug control (D)
(§3) Cell culture and drug-treatment.: ES2 cells were seeded in a T-25 flask with 4.5 million cells per flask for 24 hours. Cell culture was replaced with fresh medium with xanifolia-Y (Y) or DMSO no drug control (D) for 24 hours. Cells were then harvested for RNA isolation. Three experiments were done.
(§4) RNA extraction, labeling, hybridization, and data analysis. RNA was extracted from tumor cells using the Qiagen RNeasy Kit. RNA quality and quantity was checked by the Agilent BioAnalyzer and the NanoDrop® ND-1000 spectrophotometer respectively before further manipulation. The first and second cDNA strands were synthesized from 20 ng of total RNA using the Affymetrix T7 oligo(dT) primer protocol and kit for the two-cycle amplification. To produce amplified biotin-labeled-cRNA, the cDNA was […] by in vitro transcription using the MegaScript kit from Ambion. 15.0 μg of the labeled cRNA was fragmented and re-checked for concentration using the NanoDrop® ND-1000 spectrophotometer. A hybridization cocktail containing Affymetrix spike-in controls and fragmented labeled cRNA was loaded onto the Human U133 Plus 2.0 GeneChip® oligonucleotide array. The Affymetrix array (Affymetrix, Inc. Santa Clara, Calif.) is comprised of over 1,300,000 unique oligonucleotide features that represent greater than 38,500 well-substantiated human genes. The array was hybridized for 16 hours at 45° C. with rotation at 60 rpm then washed and stained with a strepavidin, R-phycoerythrin conjugate stain on the Affymetrix Fluidicis Station 450. Signal amplification was done using biotinylated antistreptavidin. The arrays were scanned using the GeneChip® 3000 confocal laser scanner with autoloader. The images were analyzed and quality control metrics recorded using Affymetrix GCOS software version 1.4. Lastly, the expression value for each gene was calculated using dChip PM-only model based or Plier algorithm.
(§5) Pairwise comparisons were made as follows: Treated vs. Control (Y vs. D), Modified Drug vs Control (YM/ACY-H vs. D) and Treated vs. Modified Drug (Y vs. YM/ACH-Y) Cel files analyzed using the Bioconductor package of R Statistical programming. Limma analysis generated a reasonable number of changing genes between the samples.
(§6) The raw data in the .CEL files were normalized by the GCRMA method (robust multi-array analysis). It is implemented in Bioconductor (http://www.bioconductor.org/). The raw signal intensity data were normalized, background corrected and summarized based on certain statistical models, and an expression value, in log 2-scale, is obtained per chip per probe set. Then the null hypothesis was tested that there's no significant changes in gene expression between the treatment pairs. This was done by LIMMA and is also implemented in Bioconductor. It uses empirical Bayes method to estimate the variance in gene expression. One comparison was made, namely, High Grade vs. Low Grade. The raw p-values were adjusted by the Benjamnin-Hochberg method for false discovery rate (FDR) control. All data sets contained a significant number of genes with a p-value less than 0.05, which is that the probability that a gene is NOT differential expressed (false positive) is 1:20.

[2] = test system: regulator of G-protein expression in ES2 cells; assay: Microarray gene expression, Table 14
Experimental: as §1, §2, §3, §4, §5, §6

[3] = test system: Fibronectin secretion from liver HepG2 cells; assay: Fibronectin secretion (Western blot), HepG2 cells

Row | Structure (SMILES) | ALCAM activated leukocyte cell adhesion molecule, gene expression ratio to no drug control (D) ([1]; probe 201951_at) | ALCAM activated leukocyte cell adhesion molecule, gene expression ratio to no drug control (D) ([1]; probe 201952_at) | SCAMP1 secretory carrier membrane protein 1, gene expression ratio to no drug control (D) ([1]; probe 206667_s_at) | SCAMP1 secretory carrier membrane protein 1, gene expression ratio to no drug control (D) ([1]; probe 212416_at) | SCAMP1 secretory carrier membrane protein 1, gene expression ratio to no drug control (D) ([1]; probe 212417_at) | SCAMP1 secretory carrier membrane protein 1, gene expression ratio to no drug control (D) ([1]; probe 212425_at) | TICAM2 toll-like receptor adaptor molecule 2, gene expression ratio to no drug control (D) ([1]; probe 228234_at) | TICAM2 toll-like receptor adaptor molecule 2, gene expression ratio to no drug control (D) ([1]; probe 239431_at) | ALCAM activated leukocyte cell adhesion molecule, gene expression ratio to no drug control (D) ([1]; probe 240655_at) | inhibiting ratio to the control, genes related to the adhesion molecule [1] | RGS4 regulator of G-protein signalling 4, gene expression ratio to no drug control (D) ([2]; probe 204337_at) | RGS4 regulator of G-protein signalling 4, gene expression ratio to no drug control (D) ([2]; probe 204338_s_at) | RGS4 regulator of G-protein signalling 4, gene expression ratio to no drug control (D) ([2]; probe 204339_s_at) | inhibition at 30 µg/mL ([3]; Homo sapiens, HepG2, HepG2 cells, 30 ug/ml) | % inhibition of Fibronectin secretion ([3]; HepG2 cells, 10 ug/ml) | inhibition at 10 µg/mL ([3]; Homo sapiens, HepG2, HepG2 cells, 10 ug/ml)
1 | C/C=C(/C)C(=O)O[C@H]1[C@H](OC(=O)/C(C)=C\C)[C@@]2(CO)C(CC1(C)C)C1=CCC3[C@@]4(C)CC[C@H](O)C(C)(C)C4CC[C@@]3(C)[C@]1(C)[C@@H](O)[C@H]2O (some centres unmarked) [ACH-Y] | −1.7 folds | −1.4 folds | −1.5 folds | −1.1 folds | −1.4 folds | −1.5 folds | −1.3 folds | −1.3 folds | −1.3 folds | −1.1 to −1.7 folds | −1.1 folds | −1.1 folds | −1.2 folds | 21% |  | 
2 | C/C=C(/C)C(=O)O[C@H]1[C@H](OC(=O)/C(C)=C\C)[C@@]2(CO)C(CC1(C)C)C1=CCC3[C@@]4(C)CC[C@H](O[C@@H]5OC(C(=O)O)[C@@H](O)C(O[C@@H]6O[C@@H](CO)C(O)C6O)C5O[C@@H]5OC(CO)[C@H](O)C(O)C5O)C(C)(C)C4CC[C@@]3(C)[C@]1(C)[C@@H](O)[C@H]2O (stereo partly drawn) [Xanifolia-Y, 3-O-[β-D-galactopyranosyl (1→2)]-α-L-arabinofuranosy (1→3)-β-D-glucuronopyranosyl-21,22-O-diangeloyl-3β, 15α, 16α, 21β, 22α, 28-hexahydroxyolean-12-ene] | −1.9 folds | −1.9 folds | −1.3 folds | −1.3 folds | −1.4 folds | −1.7 folds | −1.3 folds | −1.3 folds | −1.6 folds | −1.3 to −1.9 folds | −3.4 folds | −2.5 folds | −3.5 folds |  | 48% | 42%
